Results as given in the supplement of paper PMC10307832.

Columns and labels:
Assay in all cases: relative viability (nuclei count vs DMSO), 5 days (fraction); higher = more cells survive
NCI-H358 = system: NCI-H358
In short: (§1)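 Relative viability was taken as the ratio of nuclei in treated wells to nuclei in vehicle wells. Lung cancer cell lines in 1536-well plates received compounds by pin tool one day after seeding, either one drug alone or a fixed anchor-drug dose plus five library-drug doses (not always all listed) in √10 steps. Nuclei were counted on 4× images after 5 days of treatment, and values are medians of duplicate plates.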

NCI-H838 = system: NCI-H838
In short: as §1

COR-L23 = system: COR-L23
In short: as §1

NCI-H2126 = system: NCI-H2126
In short: as §1

LC-2-ad = system: LC-2-ad
In short: as §1

NCI-H1793 = system: NCI-H1793
In short: as §1

HARA = system: HARA
In short: as §1

NCI-H1993 = system: NCI-H1993
In short: as §1

NCI-H1395 = system: NCI-H1395
In short: as §1

SK-LU-1 = system: SK-LU-1
In short: as §1

HCC-15 = system: HCC-15
In short: as §1

NCI-H1944 = system: NCI-H1944
In short: as §1

NCI-H2228 = system: NCI-H2228
In short: as §1

NCI-H23 = system: NCI-H23
In short: as §1

NCI-H2023 = system: NCI-H2023
In short: as §1

ABC-1 = system: ABC-1
In short: as §1

HCC-366 = system: HCC-366
In short: as §1

NCI-H2405 = system: NCI-H2405
In short: as §1

HOP-62 = system: HOP-62
In short: as §1

HCC-78 = system: HCC-78
In short: as §1

EMC-BAC-2 = system: EMC-BAC-2
In short: as §1

Nc1ccn([C@@H]2O[C@H](CO)[C@@H](O)[C@@H]2O)c(=O)n1 [Cytarabine] + CS(=O)(=O)CCNCc1ccc(-c2ccc3ncnc(Nc4ccc(OCc5cccc(F)c5)c(Cl)c4)c3c2)o1 [Lapatinib] (partner 2 µM)
relative viability (NCI-H358; first compound 0.005 µM): 0.471
relative viability (NCI-H358; first compound 0.01581 µM): 0.332
relative viability (NCI-H358; first compound 0.05 µM): 0.364
relative viability (NCI-H358; first compound 0.1581 µM): 0.199
relative viability (NCI-H358; first compound 0.5 µM): 0.176
relative viability (NCI-H838; first compound 0.005 µM): 0.926
relative viability (NCI-H838; first compound 0.01581 µM): 0.937
relative viability (NCI-H838; first compound 0.05 µM): 0.767
relative viability (NCI-H838; first compound 0.1581 µM): 0.288
relative viability (NCI-H838; first compound 0.5 µM): 0.213
relative viability (COR-L23; first compound 0.005 µM): 0.892
relative viability (COR-L23; first compound 0.01581 µM): 0.668
relative viability (COR-L23; first compound 0.05 µM): 0.921
relative viability (COR-L23; first compound 0.1581 µM): 0.235
relative viability (COR-L23; first compound 0.5 µM): 0.138
relative viability (NCI-H2126; first compound 0.005 µM): 0.73
relative viability (NCI-H2126; first compound 0.01581 µM): 0.701
relative viability (NCI-H2126; first compound 0.05 µM): 0.61
relative viability (NCI-H2126; first compound 0.1581 µM): 0.516
relative viability (NCI-H2126; first compound 0.5 µM): 0.449
relative viability (LC-2-ad; first compound 0.005 µM): 0.878
relative viability (LC-2-ad; first compound 0.01581 µM): 0.868
relative viability (LC-2-ad; first compound 0.05 µM): 0.926
relative viability (LC-2-ad; first compound 0.1581 µM): 0.26
relative viability (LC-2-ad; first compound 0.5 µM): 0.192
relative viability (NCI-H1793; first compound 0.005 µM): 0.846
relative viability (NCI-H1793; first compound 0.01581 µM): 0.478
relative viability (NCI-H1793; first compound 0.05 µM): 0.656
relative viability (NCI-H1793; first compound 0.1581 µM): 0.451
relative viability (NCI-H1793; first compound 0.5 µM): 0.338
relative viability (HARA; first compound 0.005 µM): 0.692
relative viability (HARA; first compound 0.01581 µM): 0.51
relative viability (HARA; first compound 0.05 µM): 0.365
relative viability (HARA; first compound 0.1581 µM): 0.189
relative viability (HARA; first compound 0.5 µM): 0.132
relative viability (NCI-H1993; first compound 0.005 µM): 0.71
relative viability (NCI-H1993; first compound 0.01581 µM): 0.929
relative viability (NCI-H1993; first compound 0.05 µM): 0.682
relative viability (NCI-H1993; first compound 0.1581 µM): 0.618
relative viability (NCI-H1993; first compound 0.5 µM): 0.546
relative viability (NCI-H1395; first compound 0.005 µM): 0.935
relative viability (NCI-H1395; first compound 0.01581 µM): 0.749
relative viability (NCI-H1395; first compound 0.05 µM): 0.581
relative viability (NCI-H1395; first compound 0.1581 µM): 0.461
relative viability (NCI-H1395; first compound 0.5 µM): 0.355
relative viability (SK-LU-1; first compound 0.005 µM): 0.659
relative viability (SK-LU-1; first compound 0.01581 µM): 0.744
relative viability (SK-LU-1; first compound 0.05 µM): 0.697
relative viability (SK-LU-1; first compound 0.1581 µM): 0.345
relative viability (SK-LU-1; first compound 0.5 µM): 0.467
relative viability (HCC-15; first compound 0.005 µM): 0.785
relative viability (HCC-15; first compound 0.01581 µM): 0.887
relative viability (HCC-15; first compound 0.05 µM): 0.693
relative viability (HCC-15; first compound 0.1581 µM): 0.615
relative viability (HCC-15; first compound 0.5 µM): 0.639
relative viability (NCI-H1944; first compound 0.005 µM): 0.603
relative viability (NCI-H1944; first compound 0.01581 µM): 0.336
relative viability (NCI-H1944; first compound 0.05 µM): 0.318
relative viability (NCI-H1944; first compound 0.1581 µM): 0.177
relative viability (NCI-H1944; first compound 0.5 µM): 0.153
relative viability (NCI-H2228; first compound 0.005 µM): 0.632
relative viability (NCI-H2228; first compound 0.01581 µM): 0.562
relative viability (NCI-H2228; first compound 0.05 µM): 0.315
relative viability (NCI-H2228; first compound 0.1581 µM): 0.183
relative viability (NCI-H2228; first compound 0.5 µM): 0.136
relative viability (NCI-H23; first compound 0.005 µM): 0.974
relative viability (NCI-H23; first compound 0.01581 µM): 0.636
relative viability (NCI-H23; first compound 0.05 µM): 0.734
relative viability (NCI-H23; first compound 0.1581 µM): 0.203
relative viability (NCI-H23; first compound 0.5 µM): 0.165
relative viability (NCI-H2023; first compound 0.005 µM): 0.515
relative viability (NCI-H2023; first compound 0.01581 µM): 0.224
relative viability (NCI-H2023; first compound 0.05 µM): 0.144
relative viability (NCI-H2023; first compound 0.1581 µM): 0.0848
relative viability (NCI-H2023; first compound 0.5 µM): 0.0542
relative viability (ABC-1; first compound 0.005 µM): 1.29
relative viability (ABC-1; first compound 0.01581 µM): 1.24
relative viability (ABC-1; first compound 0.1581 µM): 1.16
relative viability (ABC-1; first compound 0.5 µM): 1.03
relative viability (HCC-366; first compound 0.005 µM): 1.16
relative viability (HCC-366; first compound 0.01581 µM): 0.85
relative viability (HCC-366; first compound 0.05 µM): 1.05
relative viability (HCC-366; first compound 0.1581 µM): 0.0753
relative viability (HCC-366; first compound 0.5 µM): 0.0431
relative viability (NCI-H2405; first compound 0.005 µM): 0.937
relative viability (NCI-H2405; first compound 0.01581 µM): 0.698
relative viability (NCI-H2405; first compound 0.05 µM): 0.637
relative viability (NCI-H2405; first compound 0.1581 µM): 0.483
relative viability (NCI-H2405; first compound 0.5 µM): 0.294
relative viability (HOP-62; first compound 0.005 µM): 0.825
relative viability (HOP-62; first compound 0.01581 µM): 0.821
relative viability (HOP-62; first compound 0.05 µM): 0.385
relative viability (HOP-62; first compound 0.1581 µM): 0.134
relative viability (HOP-62; first compound 0.5 µM): 0.0735
relative viability (HCC-78; first compound 0.005 µM): 0.799
relative viability (HCC-78; first compound 0.01581 µM): 0.595
relative viability (HCC-78; first compound 0.05 µM): 0.353
relative viability (HCC-78; first compound 0.1581 µM): 0.308
relative viability (HCC-78; first compound 0.5 µM): 0.19
relative viability (EMC-BAC-2; first compound 0.005 µM): 0.857
relative viability (EMC-BAC-2; first compound 0.01581 µM): 0.85
relative viability (EMC-BAC-2; first compound 0.05 µM): 0.763
relative viability (EMC-BAC-2; first compound 0.1581 µM): 0.283
relative viability (EMC-BAC-2; first compound 0.5 µM): 0.287
